2 molecules from BindingDB's records for patent US12391670 (Leadxpro, 2025) can be followed below.

Holding throughout (assay): Radioligand Binding Assay
One test deals with Adenosine receptor A2a (Homo sapiens, UniProt P29274). As for the experimental part:
(§1) For all four adenosine receptors (A1, A2A, A2B and A3) filtration binding assay was performed. Radioligand binding competition assay was done in duplicates in the wells of a 96-well plate (Master Block, Greiner, 786201) containing binding buffer, receptor membrane extracts, a fixed concentration of tracer and test compound at increasing concentrations. In order to eliminate effect of buffer components, binding buffer was the same for all four receptors and contained: 50 mM Tris-HCl pH 7.4, 5 mM MgCl2, 1 mM EDTA, 150 mM NaCl, 0.1% Na-azide, and 5 U/ml adenosine-deaminase. Nonspecific binding was determined by co-incubation with 200-fold excess of cold competitor. In all radioligand binding experiments, the samples were incubated in a final volume of 0.1 ml for 60 minutes at 25° C. and then filtered over Unifilter plates (Perkin Elmer) pre-treated for 2 hours to limit tracer non-specific binding. Filters were washed five times with 0.5 ml of ice-cold washing buffer (50 mM Tris-HCl pH 7.4, 5 mM MgCl2, 1 mM EDTA) and 50 μl of Microscint 20 (Perkin Elmer) were added to each filter. The plates are incubated 15 min at room temperature on an orbital shaker and then counted with a TopCount™ for 1 min/well.

The target in a further test is T1, Adenosine receptor A2b (Homo sapiens, UniProt P29275).
T1 sequence (P29275 whole entry): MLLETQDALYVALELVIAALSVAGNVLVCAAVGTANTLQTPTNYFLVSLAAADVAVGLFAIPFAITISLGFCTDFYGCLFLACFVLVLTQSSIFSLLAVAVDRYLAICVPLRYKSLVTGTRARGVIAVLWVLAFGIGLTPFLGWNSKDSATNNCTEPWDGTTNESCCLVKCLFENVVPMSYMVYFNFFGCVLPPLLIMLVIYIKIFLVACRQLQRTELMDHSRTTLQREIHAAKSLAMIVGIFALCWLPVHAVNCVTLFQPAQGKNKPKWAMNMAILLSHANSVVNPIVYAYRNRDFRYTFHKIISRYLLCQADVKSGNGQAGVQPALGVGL
As for the experimental part:
as §1

The next test concerns the target T2, Adenosine receptor A3 (Homo sapiens, UniProt P0DMS8).
T2 sequence (P0DMS8 whole entry): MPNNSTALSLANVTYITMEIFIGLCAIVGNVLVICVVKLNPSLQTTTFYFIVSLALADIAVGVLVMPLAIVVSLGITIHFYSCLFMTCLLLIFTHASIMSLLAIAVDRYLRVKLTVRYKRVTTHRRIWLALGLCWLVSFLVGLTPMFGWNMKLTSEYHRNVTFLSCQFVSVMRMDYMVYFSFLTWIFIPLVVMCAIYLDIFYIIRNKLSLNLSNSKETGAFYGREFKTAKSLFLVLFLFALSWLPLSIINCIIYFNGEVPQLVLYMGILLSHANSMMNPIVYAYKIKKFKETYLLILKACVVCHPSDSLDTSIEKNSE
The protocol: as §1

Bounds are passed on as bounds.

Adenosine receptor A2a, sequence (P29274 whole entry): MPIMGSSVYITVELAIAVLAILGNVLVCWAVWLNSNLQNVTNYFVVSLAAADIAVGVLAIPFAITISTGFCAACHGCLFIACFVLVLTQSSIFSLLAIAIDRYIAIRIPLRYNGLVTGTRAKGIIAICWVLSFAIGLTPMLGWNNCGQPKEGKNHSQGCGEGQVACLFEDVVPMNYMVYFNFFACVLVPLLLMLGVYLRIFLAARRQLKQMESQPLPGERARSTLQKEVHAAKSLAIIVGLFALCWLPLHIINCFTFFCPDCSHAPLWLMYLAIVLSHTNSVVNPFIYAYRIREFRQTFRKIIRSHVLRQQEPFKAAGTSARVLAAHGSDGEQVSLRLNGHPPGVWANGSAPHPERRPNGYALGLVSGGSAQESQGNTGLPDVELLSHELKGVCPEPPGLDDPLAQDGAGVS

A word on the Ki: it is the equilibrium dissociation constant of an inhibitor or competing ligand from its target. By IC50 is commonly meant the concentration that gives 50% inhibition. `Cc1nsc(Nc2nnc(-c3ccnc(C(F)(F)F)c3)c(-c3ccccc3F)n2)n1` [US12391670, Example 11]: the Ki on Adenosine receptor A2a is more than 20 µM. At Adenosine receptor A2b, the IC50 came out at 1.01 µM and the Ki amounted to 0.891 µM.
With `Fc1ccccc1-c1nc(Nc2cccnc2)nnc1-c1ccnc(C(F)(F)F)c1` [US12391670, Example 8], the IC50 at Adenosine receptor A2a came out at 24.1 µM; at Adenosine receptor A2b, 0.25 µM; on Adenosine receptor A3, 1.35 µM. The figures for the Ki at Adenosine receptor A2a, at Adenosine receptor A2b and on Adenosine receptor A3 were 24 µM, 0.224 µM and 1.02 µM, respectively.
